# Measurements: patent publication US5837728A, “9-cis retinoic acid esters and amides and uses thereof” (priority 1995, dated 1998)
# Tests used:
# sebaceous gland = experiment: Oral hamster sebaceous gland reduction assay; format: in vivo, male Syrian golden hamsters; set-up: key to the marks not given beside the values; details: 32 mg/kg
# Experimental: An oral assay for hamster sebaceous gland reduction is conducted.
# Hamsters are dosed orally with the test compound and vehicle alone. The reduction in sebaceous gland size is estimated microscopically in relation to the control. The assay is unique and proprietary to Ortho Pharmaceutical Corp. and is based upon the work of Plewig et al. (1977) and Gomex et al. (1980). Plewig, et al., Hamster Ear Model for Sebaceous Glands, J. Invest. Derm. 68: 171-176 (1977). Gomez, et al., Effect of 13-cis-Retinoic Acid on the Hamster Flank Organ, J. Invest. Derm. 74: 392-397 (1980).
# For oral (p.o.) studies, male Syrian golden hamsters are […] at 5 ml/kg, once daily, five consecutive days/week for two or three weeks. Modified but similar dosing schedules could be used. Control hamsters are dosed with vehicle alone at 5 ml/kg. Following final treatment (up to 72 hours), the hamsters are sacrificed in a CO2 atmosphere. Samples of each test site are placed into 10% buffered formalin and histologically prepared. Serial sections of each sample are stained (H&E) and examined microscopically.
# The reduction in sebaceous gland size is estimated microscopically in relation to the control treated sites. To quantify sebaceous gland size, cross-sectional areas are measured with an image analyzer system.
# [1] = system: ornithine decarboxylase (ODC); experiment: ODC/Retinoid Bioassay: inhibition of TPA induced ornithine decarboxylase activity; format: in vivo, CD-1 mice; details: for ODC activity reduction: topical, 1.7 nM (as printed in Table 2), TPA induced
# Experimental: The ODC/Retinoid Bioassay is based on the method of Verma, A. K. and Boutwell, R. K., Cancer Res. (1977) 37:2196-2201. The ODC assay measures a compounds effect on the prevention of the induction of ODC, namely the effect of the retinoid compound on the inhibition of the tumor promoter 12-O-tetradecanoylphorbol-13-acetate (TPA) induced ODC activity. The assay is carried out using CD-1 mice (aged 7 to 9 weeks). The dorsal hair of the mice is shaved 3-4 days before testing. Four mice are used for each point. The test retinoids, at one of two dose levels (1.7 and 17 nmoles) dissolved in 0.2 ml of acetone is applied topically to the back of each shaved mouse. A single dose of TPA ([…]) is applied to the back of each treated mouse 30 minutes later. Control groups are treated with either acetone alone, TPA, or tretinoin. The mice are sacrificed by cervical dislocation 5 hours after TPA treatment.
# The dorsal skin encompassing the shaved and TPA exposed area is excised and placed in a 100 ml beaker containing distilled water maintained at 51° C.-57° C. The skin is soaked for 50-70 seconds at this temperature with intermittent stirring. The skin is placed epidermis side up in a chilled (0°-5° C.) stainless steel plate and the epidermal layer is scraped off with a razor blade. The epidermal layers from the 4 mice are pooled and placed in a homogenization tube with 2 ml of ODA buffer ([…] with […] pyridoxal phosphate, […] ethylenediaminetetraacetic acid (EDTA), 1 mM dithiothreitol, pH 7.5). The pooled epidermal layers are homogenized for 15 seconds at 0° C. using a Polytron homogenizer at a setting of 7.5. The homogenate is centrifuged at 30,000×g and the supernatant fraction is pipetted into a storage tube and frozen for about 72 hours.
# The homogenate is assayed for ODC activity as described by Verma and Boutwell to measure the release of ^14 CO2 from labeled DL(1-14C) ornithine. Incubations are carried out in disposable centrifuge tubes with center well holders containing filter paper impregnated with sodium hydroxide to absorb ^14 CO2. The incubation mixture consisted of 90 μl of L-ornithine, 350 μl of ODC buffer, 100 μl of 14C-ornithine (1.32 nm, Sp. Act:4.4 pCi/pM) and 10 μl of test sample. After incubation at 37° C. for 45 minutes, 0.5 ml of 2M chilled citric acid (4° C.) is added and incubation is continue for an additional 30 minutes to insure complete absorption of ^14 CO2. The filter paper is removed from the center well holders and set in 1 ml of water in capped scintillation vials for at least 1 hour before adding RBI 3820 scintillation cocktail. Radioactivity is measured in a Tri Carb Scintillation Counter. Results are expressed as pmol of ^14 CO2 released in 30 minutes per milligram of protein based on the specific activity of DL-14C-ornithine. The results are expressed in Table 2 below as the % reduction in ODC activity as compared to the control, for the compounds of each of the preceding Examples: […]
# [2] = system: Human neonatal foreskin fibroblasts; experiment: Growth of human neonatal foreskin fibroblasts (cell number); format: cell-based; details: for Number of fibroblasts: two days
# Excerpt: (§1) Human neonatal foreskin keratinocytes and human neonatal foreskin fibroblasts were isolated and grown in monlayer culture. Culture medium for keratinocytes was Keratincyte Growth Medium (KGM) from Clonetics, Inc., San Diego. Calif. The culture medium for fibroblasts was Dulbecco's Modified Eagle's Medium (DMEM) supplemented with non-essential amino acids and 10% fetal bovine serum. The culture medium was obtained from GIBCO, Grand Island, N.Y. and the FBS was from Hyclone Labs, Inc., Logan, Utah.
# Cells at passage 2-4 were plated in wells of a 24 well dish at approximately 5×10^4 cells per well in their respective culture medium. Incubation was at 37° C. with 5% CO2. After the cells attached and spread overnight, they were washed two times in serum-free keratincyte basal medium (KBM) and incubated in 1 ml of KBM or in 1 ml of KGM. Compound IV was added in varying concentrations to the wells. All-trans-retinoic acid (or no treatment) was added to control wells. The cells were incubated for an additional two days for fibroblasts and three days for keratinocytes, and were then harvested and counted. The effect of IV and of the controls are shown for both cell types in Tables 9 and 10: […]
# [3] = system: Human neonatal foreskin keratinocytes; experiment: Growth of human neonatal foreskin keratinocytes (cell number); format: cell-based; details: for Number of keratinocytes, KGM / Number of keratinocytes, KMB: three days
# Excerpt: as §1
# Cells at passage 2-4 were plated in wells of a 24 well dish at approximately 5×10^4 cells per well in their respective culture medium. Incubation was at 37° C. with 5% CO2. After the cells attached and spread overnight, they were washed two times in serum-free keratincyte basal medium (KBM) and incubated in 1 ml of KBM or in 1 ml of KGM. Compound IV was added in varying concentrations to the wells. […] The cells were incubated for an additional two days for fibroblasts and three days for keratinocytes, and were then harvested and counted.
# [4] = system: pseudocomedone (utriculus) of the rhino mouse; experiment: Topical rhino mouse pseudocomedone (utriculus) reduction assay; format: in vivo; set-up: Utriculus reduction (Table 1) / Utriculus reduction (Table 3): key to the marks not given beside the values; details: concentration 0.1 (unit not given)
# Experimental: A topical assay to test for pseudocomedone (utriculus) reduction in the rhino mouse is conducted.
# Each test compound and a vehicle control is applied topically to the dorsal trunk of the rhino mouse. The utriculus diameters are measured with a ocular micrometer. […] Kligman, et al., The Effect on Rhino Mouse Skin of Agents which Influence Keratinization and Exfoliation, J. Invest. Derm. […] Van Scott, Experimental Animal Integumental Models for Screening Potential Dermatologic Drugs, In Pharmacology of the Skin, eds. […] Mann, Hair Loss and Cyst Formation in Hairless and Rhino Mutant Mice, Anat. Rec. […] Mezick, et al., Topical and Systemic Effects of Retinoids on Horn-Filled Utriculus Size in the Rhino Mouse. A Model to Quantify Antikeratinizing Effects of Retinoids, J. Invest. Derm. […] Mezick, et al., Anti-Acne Activity of Retinoids in the Rhino Mouse, In Models in Dermatology, eds.
# (§2) The dorsal trunk of the rhino mouse is the test site. Each test compound is dissolved in alcohol:propylene glycol (70:30, v:v) or other suitable vehicle and topically applied (0.1 ml) to the dorsal trunk once daily, five consecutive days/week for two weeks. Also, administration may be oral (p.o.) in a suitable vehicle. Following treatment, the animals are sacrificed by cervical dislocation. The treated dorsal trunk skin is removed from the animal and placed into 0.5% acetic acid for up to 18 hours at approximately 4° C. After this, the epidermis with the acne cysts is separated from the underlying dermis. The sheets of epidermis are processed by routine methods to permanent whole mounts for microscopic examination. Also, full-thickness samples may be taken, stained (H&E), and examined by light microscopy.
# The utriculus diameters are measured with an ocular micrometer to compare effects of test compounds to vehicle control and/or reference compound on cyst reduction. Light microscopy is used to determine effects on cell differentiation.
# Another topical assay is conducted following the procedure described above.
# Each test compound and a vehicle control was applied topically to the dorsal trunk of the rhino mouse. The utriculus diameters are measured with a ocular micrometer. […] Kligman, et al., J. Invest. […] Van Scott, Pharmacology of the Skin, eds. […] Mann, Anat. […] Mezick, et al, J. Invest. […] Mezick et al., Models in Dermatology, eds.
# as §2, with “(70:30,v:v)” for “(70:30, v:v)”, “weeks.” for “weeks. Also, administration may be oral (p.o.) in a suitable vehicle.”, “"acne cysts"” for “acne cysts”, “are” for “may be”, “(H&E)” for “(H&E),”, “microscope.” for “microscopy.”
compound,measurement,setting,value
"CCCCCCCCCC(=O)OCC(=O)COC(=O)/C=C(C)/C=C/C=C(C)\C=C\C1=C(C)CCCC1(C)C [Compound 3, 1-(9-cis-retinoyloxy)-3-decanoylyoxy-2-propanone]",Sebaceous gland reduction,sebaceous gland,+++
same,ODC activity reduction,[1],+++
"CCCCCCCC/C=C\CCCCCCCC(=O)OCC(COC(=O)/C=C(C)/C=C/C=C(C)\C=C\C1=C(C)CCCC1(C)C)OC(=O)CCCCCCC/C=C\CCCCCCCC (stereo not drawn) [Compound 9, 1-(9-cis-retinoyloxy)-2,3-dioleoylpropane]",ODC activity reduction,[1],++
"CC1=C(/C=C/C(C)=C\C=C\C(C)=C\C(=O)OCC(=O)COC(=O)/C=C(C)/C=C/C=C(C)\C=C\C2=C(C)CCCC2(C)C)C(C)(C)CCC1 [Compound 4, 1,3-bis-(9-cis-retinoyloxy)-2-propanone]",ODC activity reduction,[1],+++
"CC1=C(/C=C/C(C)=C\C=C\C(C)=C\C(=O)OCC(=O)CO)C(C)(C)CCC1 [Compound 8, 1-(9-cis-retinoyloxy)-3-hydroxy-2-propanone]",ODC activity reduction,[1],+++
CC1=C(/C=C/C(C)=C\C=C\C(C)=C\C(=O)OCC(=O)C(C)(C)C)C(C)(C)CCC1 [Compound IV],Number of fibroblasts,[2]; 0.1 μg/ml,6.4 ± 0.6 × 10^4 cells
same,Number of fibroblasts,[2]; 0.25 μg/ml,5.8 ± 0.1 × 10^4 cells
same,Number of fibroblasts,[2]; 0.5 μg/ml,5.5 ± 0.8 × 10^4 cells
same,Number of fibroblasts,[2]; 1.0 μg/ml,7.9 ± 0.1 × 10^4 cells
same,Number of fibroblasts,[2]; 5.0 μg/ml,8.5 ± 0.6 × 10^4 cells
same,Number of fibroblasts,[2]; 10.0 μg/ml,7.5 ± 0.9 × 10^4 cells
same,Effect on fibroblasts (summary of Tables 9 and 10),[2]; compared with retinoic acid,less active result with fibroblasts
same,"Number of keratinocytes, KGM",[3]; 0.10 μg/ml,27.4 ± 0.1 × 10^4 cells
same,"Number of keratinocytes, KMB",[3]; 0.10 μg/ml,13.1 ± 0.5 × 10^4 cells
same,"Number of keratinocytes, KGM",[3]; 0.25 μg/ml,25.9 ± 0.4 × 10^4 cells
same,"Number of keratinocytes, KGM",[3]; 0.5 μg/ml,22.5 ± 0.1 × 10^4 cells
same,"Number of keratinocytes, KMB",[3]; 0.5 μg/ml,13.8 ± 2.4 × 10^4 cells
same,"Number of keratinocytes, KGM",[3]; 1.0 μg/ml,21.2 ± 0.8 × 10^4 cells
same,"Number of keratinocytes, KMB",[3]; 1.0 μg/ml,14.0 ± 0.9 × 10^4 cells
same,"Number of keratinocytes, KGM",[3]; 5.0 μg/ml,6.4 ± 0.1 × 10^4 cells
same,"Number of keratinocytes, KMB",[3]; 5.0 μg/ml,11.2 ± 1.2 × 10^4 cells
same,"Number of keratinocytes, KGM",[3]; 10.0 μg/ml,4.5 ± 0.2 × 10^4 cells
same,"Number of keratinocytes, KMB",[3]; 10.0 μg/ml,8.4 ± 0.2 × 10^4 cells
same,Effect on keratinocytes (summary of Tables 9 and 10),[3]; compared with retinoic acid,"potent ""retinoid"" effect on keratinocytes"
"CC1=C(/C=C/C(C)=C\C=C\C(C)=C\C(=O)OCC(=O)c2ccccc2)C(C)(C)CCC1 [Compound 5, 9-cis-retinoyloxy methyl phenyl ketone]",Utriculus reduction (Table 3),[4],++
same,ODC activity reduction,[1],++
"CCCCCCCCCCCCCC(=O)O[C@@H]1[C@@H](C)[C@@]2(O)[C@@H](C=C(CO)C[C@]3(O)C(=O)C(C)=C[C@@H]23)[C@@H]2C(C)(C)[C@]12OC(C)=O [TPA, 12-O-tetradecanoylphorbol-13-acetate, reference compound]",ODC activity reduction (TPA control),"[1]; TPA 17.0 nM, control",0 nM ^14 CO2 /30 min/mg Protein
"CC1=C(/C=C/C(C)=C\C=C\C(C)=C\C(=O)ON2C(=O)CCC2=O)C(C)(C)CCC1 [Compound 10, Succinimidyl 9-cis-retinoate]",Utriculus reduction (Table 3),[4],++
same,ODC activity reduction,[1],+++
"CC1=C(/C=C/C(C)=C\C=C\C(C)=C\C(=O)OCOC(=O)C(C)(C)C)C(C)(C)CCC1 [Compound 6, 9-cis-retinoyloxymethyl 2,2-dimethylpropanoate]",Utriculus reduction (Table 3),[4],+++
same,ODC activity reduction,[1],+++
